Experimental data reported in patent US6682897B1, “Peptides derived from human heat protein 60 for treatment of diabetes, compositions, methods and kits” (Yeda Research and Development Co. Ltd., priority 1995, dated 2004).
“Also recorded” adds a separate entry of the source. Marks after values point to notes of the source that are not given here. Where no end group is shown, it is not given here.

Experiments:
[1] = system: peripheral blood T-cells; assay: Peripheral blood T-cell proliferation of IDDM patients and healthy controls to hsp60 and hsp60 synthetic peptides (Example 5); format: cell-based, human; conditions: 26 newly diagnosed IDDM patients; peptides 20 μg/ml, 7 days
[2] = system: draining lymph nodes; assay: T-cell proliferative responses of NOD mice to peptides (Example 4, FIG. 3); format: cell-based; conditions: NOD mice immunized with 25 μg peptide in IFA, lymph nodes 10 days later, 20 μg/ml
Method: FIG. 3 is a graph showing T-cell proliferative responses of NOD mice to peptides. Groups of three NOD mice were […] with peptides mouse p12, mouse p277, GAD-p35 and MT-p278 in IFA each at a dose of 25 μg in IFA. The draining lymph nodes were removed 10 days later and assayed for proliferative responses to the corresponding peptide at the concentrations of 5, 10, 20, and 50 μg/ml. The stimulation at the optimal concentration of 20 μg/ml is shown. The following ranges of cpm were obtained in medium controls: mouse p12, 881; mouse p277, 1243; MT-p278, 698 and GAD-p35 1430. Peptide mouse p38 is a peptide derived from mouse hsp60 (556-573), which has no sequence homology with the tested peptides and serves as a negative control of specificity. […] Each assay was done in triplicates for which the SD values are indicated by the bars. There was no cross-reactivity between the peptides (not shown).
(§1) (iii) T-Cell proliferation to peptides. Mice. Nine week old NOD mice or mice of other strains were immunized in the hind foot pads with 0.1 ml of an emulsion containing 25 μg peptide in complete Freund's adjuvant (CFA; Difco, Detroit, Mich.) mixed with an equal volume of phosphate-buffered saline (PBS). The draining popliteal lymph nodes were removed 10 days later and suspensions of lymphocytes in triplicate cultures were tested for proliferation in the presence of the various peptides (5 μg/ml) using the incorporation of [^3H]-thymidine as described (Elias et al., 1991). The results are shown as the stimulation index (SI): the ratio of the mean cpm in the presence of the test peptide to the mean cpm of control cultures without the peptide. Standard errors were always less than 10% of the means.
Spontaneous T cell responses in pre-diabetic NOD mice were detected to the mouse p277 peptide (Elias et al., 1991; Birk et al., 1996) and to larger fragments of the mouse hsp60 molecule that contained the mouse p277 sequence (Birk et al., 1996). […] Other peptides immunogenic for NOD mice are the MT-p278 peptide (residues 458-474 in the Mycobacterial hsp60 molecule), and GAD-p35 (residues 524-543 in the GAD65 molecule).

[3] = system: spleens of female NOD mice; assay: Spontaneous T-cell responses in spleens of female NOD mice (longitudinal study); format: cell-based; conditions: female NOD mice at ages 3-16 weeks
[4] = system: female NOD mice; assay: Peptide treatment of 10-week old NOD mice, development of diabetes (Example 4, FIG. 4); format: in vivo; conditions: single s.c. injection in IFA at 10 weeks, observed through 8 months of age, vs IFA alone
Method: FIG. 4 is a graph showing the effect of peptide administration on diabetes. Groups of 10-20 NOD mice were treated at 10 weeks of age with 100 μg of mouse p12, p277, p35-GAD or MT-p278 in IFA, or IFA alone. The mice were bled monthly and followed for the onset of hyperglycemia.
(§2) (iv) Treatment and follow-up. Peptides, […], in PBS, were emulsified with an equal volume of IFA and injected subcutaneously into 10-week-old NOD females as described (Elias and Cohen, 1995). Control mice received an equal volume of PBS emulsified in IFA. The mice were monitored monthly for non-fasting blood glucose at 10am using the Blood Glucose Sensor (MediSense. Inc., Waltham, Mass.). Mice with a blood glucose greater than 11.1 mmol/L were considered to be diabetic; this concentration of glucose was greater than 3 standard deviations above the mean blood glucose concentration measured in non-diabetic mice (Elias and Cohen, 1995). Histological examination of the islets of the pancreas was done on sections stained with hematoxylin and eosin. The sections were scored independently by two observers who both were unaware of the identity of the groups. The chi square test was used to ascertain the statistical differences between the various treatments.
Following a protocol shown to be effective with mouse p277(Elias et al., 1991; Elias and Cohen, 1994; Elias and Cohen, 1995), groups of 10-week old female NOD mice were treatedby a single subcutaneous injection of each peptide ([…]) emulsified in IFA.

[5] = system: serum antibodies of the IgG1, IgG2a and IgG2b isotypes; assay: Serum anti-peptide antibody isotypes by ELISA in peptide-treated NOD mice (FIG. 5); format: in vivo; conditions: for antibody titers of the IgG1 and IgG2b isotypes: peptide-treated NOD mice, sera diluted 1:50, ELISA
Method: FIGS. 5A-5D show the IgG1, IgG2a and IgG2b antibody isotypes in response to peptide treatment. Mice were treated as described in the legend to FIG. 4. Individual samples were analyzed for antibodies to mouse p12 A; p277 B; GAD-p35 C; and MT-p278 D, of the IgG1, IgG2a and IgG2b isotypes. Similar effects were obtained in two experiments. The results are presented as the absorbance at 405 nm (OD) of 10 individual mice in each group. The level of significance of the prevalence of IgG1 and IgG2b antibodies in groups A and B compared to C and D is P<0.001. The differences between the levels of IgG1 and IgG2b antibodies compared to the IgG2a antibodies in groups A and B were significant (P<0.001). There was no cross-reactivity between the antibodies (not shown).
(v) Serum Antibodies. Mice were bled monthly to detect antibody responses. The ELISA assay was done as described (Elias et al., 1991). Briefly, flat bottom Maxi-sorb plates (Nunc, Roskilde, Denmark) were coated, for the detection of anti-peptide antibodies, with […] of peptide in PBS, at a concentration of […] for 2 h at room temperature followed by over night incubation at 4° C. After incubation with peptide, the plates were washed and blocked for 2 h at 37° C. with 7% BSA (Sigma) in PBS. Sera were diluted 1:50 then added for 2 h at 37° C., followed by incubation for 2 h with […] of goat anti-mouse IgG (gamma chain Fc specific) conjugated to alkaline phosphatase (Jackson, Philadelphia, Pa.). After washing, the plates were incubated with the substrate, diethanolamine (Sigma) and read using an ELISA reader at 405 nm.
Successful treatment of STZ-induced diabetes with mouse peptide p277 was associated with the appearance of anti-peptide antibodies predominantly of the IgG1 and IgG2b isotypes (Elias and Cohen, 1996). The peptide-treated NOD mice for their serum antibodies was therefore examined. […] Thus, effectiveness in inhibiting diabetes was associated with the induction of an antibody response mainly of the IgG1 and IgG2b isotypes.

[6] = system: draining popliteal lymph node lymphocytes; assay: T-cell proliferation of draining lymph node cells of NOD mice immunized with hsp60 peptides in CFA (Example 1, FIG. 2); format: cell-based; conditions: NOD mice immunized with peptide emulsified in CFA in hind foot pads, assayed after 10 days
Method: as §1, with “1991).” for “1991). The results are shown as the stimulation index (SI): the ratio of the mean cpm in the presence of the test peptide to the mean cpm of control cultures without the peptide. Standard errors were always less than 10% of the means.”
The immunogenicity of the hsp60 peptides p12, p32, p277(Val^6-Val^11) and p278 in NOD mice was tested by immunizing the mice with the peptides emulsified in CFA in the hind foot pads, and assaying the proliferative responses of draining lymph node cells after 10 days as described above in section iii(a).

[7] = system: NOD/Lt female mice; assay: Treatment of NOD mice with peptides in IFA: diabetes and mortality (Example 2); format: in vivo; conditions: 100 μg peptide in IFA s.c., nine-week old NOD/Lt females; for Diabetes (%): persistent blood glucose over 11.1 mmol/l at 25 weeks of age
Method: as §2, with “Mice with a blood glucose greater than 11.1 mmol/L were considered to be diabetic; this concentration of glucose was greater than 3 standard deviations above the mean blood glucose concentration measured in non-diabetic mice (Elias and Cohen, 1995).” left out
To test whether the p12 and p32 peptides can block the progression of diabetes as p277(Val^6-Val^11), the p277(Val6-Val^11), p12 or p32 peptides (100 μg in a 0.1 cc emulsion of IFA) were administered subcutaneously to groups of 10-12 nine-week old NOD/Lt female mice of the Jackson Laboratory, Bar-Harbor, Me. Diabetes, determined as persistent blood glucose levels over 11.1 mmol/l, was tested at 25 weeks of age. Control mice were untreated or were treated with p278.

[8] = system: Peripheral mononuclear cells (PBMC) of IDDM patients; assay: T-cell proliferative response of PBMC from newly diagnosed IDDM patients (Example 3); format: cell-based, human; conditions: antigen 10 μg/ml, 6 days, SI more than 2.0 positive
Method: To determine the T-cell responses to the various hsp60 peptides, lymphocytes from the peripheral blood of newly diagnosed (2 weeks-4 months) IDDM patients were tested in a proliferation assay. 10-20 ml of blood were removed into a sterile tube containing heparin as anti-coagulant and diluted in PBS 1:2. Peripheral mononuclear cells (PBMC) were isolated by centrifuging the blood over a lymphoprep layer. The PBMC were tested for proliferation in triplicates, in the presence of the various antigens (10 μg/ml) for 6 days using the incorporation of [^3H]-thymidine as a measure of proliferation. The antigens tested were human hsp60 or the hsp60 peptides p277(Val^6-Val^11), p12, p32 and control peptide p278. The T cell proliferative response is depicted as stimulation index (SI): The ratio between peptide-stimulated thymidine incorporation and background (no antigen added) thymidine incorporation by the T cells.

[9] = Cross-reactivity with native peptide by T-cell and antibody assays
Description: (ii) Antigens. […] Whenever unspecified, the human sequence is intended.

[10] = compared with p277; cited from earlier work
[11] = system: NOD mice; conditions: s.c. in IFA; young NOD mice or 12-17 week old NOD mice with advanced insulitis; cited from earlier work
[12] = system: C57BL/KsJ mice; conditions: mice that had received earlier a very low dose of STZ; cited from earlier work

KAPGFGDNRKNQLKDMAIAT [p21, human hsp60 residues 301-320]
T-cell proliferative response of IDDM patients (S.I. 2 or greater positive) [1]: no IDDM patients responded

EGDEATGANIVKVALEA [MT-p278]
immunogenicity (T-cell proliferative response) [2]: as strongly immunogenic as are mouse p277 and mouse p12
spontaneous T-cell responses [3]: spontaneous responses were detected
development of diabetes [4]: no different than was treatment with IFA alone
mice that made specific IgG1 antibodies ([5]; 10 individual mice per group, ELISA): only two of the ten
titers of IgG2b antibodies ([5]; compared with mouse p12 and mouse p277 groups): significantly lower titers
antibody titers of the IgG1 and IgG2b isotypes [5]: did not respond as strongly

LVIIAEDVDGEALSTLVLNR [p19, human hsp60 residues 271-290]
T-cell proliferative response of IDDM patients (S.I. 2 or greater positive) [1]: no IDDM patients responded

EEIAQVATISANGDKDIGNI [mouse p12]
immunogenicity (T-cell proliferative response) [2]: strong response
spontaneous T-cell responses [3]: no spontaneous responses
development of diabetes [4]: significantly protected; also recorded: effective in inhibiting the development of diabetes
antibody titers of the IgG1 and IgG2b isotypes [5]: effective in inducing strong antibody titers

VLGGGVALLRVIPALDSLTPANED [p277(Val^6-Val^11)]
immunogenicity (proliferative responses of draining lymph node cells) [6]: strongly immunogenic
Mortality (%) [7]: 5* %
therapeutic effect in treatment of diabetes [7]: effective in treatment of diabetes
Diabetes (%) [7]: 10%
Diabetes (%) ([7]; listed as p277 (Val^6 - Val^11)): 10* %
T-cell proliferative response (SI) ([8]; Patient 1): 4.5
T-cell proliferative response (SI) ([8]; Patient 2): 5.0
T-cell proliferative response (SI) ([8]; Patient 3): 5.6
T-cell proliferative response (SI) ([8]; Patient 4): 1.0
T-cell proliferative response (SI) ([8]; Patient 5): 1.1
T-cell proliferative response (SI) ([8]; Patient 6): 1.3
T-cell proliferative response (SI) ([8]; Patient 7): 3.9
T-cell proliferative response (SI) ([8]; Patient 8): 1.2
cross-reactivity with the native peptide [9]: completely cross-reactive
activity in the treatment of diabetes [10]: as active as p277

VLGGGCALLRCIPALDSLTPANED (cysteine pairing not given here) [p277, human hsp60 residues 437-460]
development of diabetes [4]: significantly protected
disease progression [11]: arrest of disease progression
development of autoimmune diabetes [12]: aborted the development of autoimmune diabetes
